Earlier results as cited in patent US10668058B2, “Device and method for delivery of a medicament” (Philip Morris Products S.A., priority 2007, dated 2020).

Conditions: 25° C.

## CN1CCCC1c1cccnc1 (stereo not shown) [Nicotine only, Nicotine]
  vapor pressure: 0.04 mm Hg
